Reference: ChEMBL document CHEMBL4828725 (Eur J Med Chem, 2021)

Assays:
[1] = Inhibition of bovine liver beta-galactosidase using p-nitrophenyl glycoside as substrate assessed as release of p-nitrophenol measured by spectrometric assay; type: tissue-based, Bos taurus
[2] = target: T1, Tissue alpha-L-fucosidase (Bos taurus) (UniProt Q2KIM0); experiment: Inhibition of bovine kidney alpha-L-fucosidase using p-nitrophenyl glycoside as substrate assessed as release of p-nitrophenol at 1000 uM measured by spectrometric assay relative to control; type: tissue-based
T1 sequence (whole entry): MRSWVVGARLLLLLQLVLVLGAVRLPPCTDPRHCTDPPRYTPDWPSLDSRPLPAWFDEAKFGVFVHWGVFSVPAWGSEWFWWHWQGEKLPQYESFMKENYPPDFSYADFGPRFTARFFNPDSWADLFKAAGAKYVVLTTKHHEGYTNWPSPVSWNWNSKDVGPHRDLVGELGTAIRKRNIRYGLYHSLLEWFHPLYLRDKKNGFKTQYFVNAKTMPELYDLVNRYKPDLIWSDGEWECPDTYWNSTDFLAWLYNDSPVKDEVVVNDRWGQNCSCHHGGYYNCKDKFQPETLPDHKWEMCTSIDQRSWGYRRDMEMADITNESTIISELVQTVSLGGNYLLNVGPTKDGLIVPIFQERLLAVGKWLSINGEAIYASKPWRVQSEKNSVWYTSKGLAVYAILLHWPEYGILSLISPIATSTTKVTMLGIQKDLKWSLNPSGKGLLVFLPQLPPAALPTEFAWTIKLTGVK

[3] = Inhibition of rat intestinal maltase using maltose as substrate assessed as release of D-glucose measured by spectrometric assay
Helix pomatia = experiment: Inhibition of snail beta-mannosidase using p-nitrophenyl glycoside as substrate assessed as release of p-nitrophenol at 1000 uM measured by spectrometric assay relative to control
[4] = Inhibition of jack bean alpha-mannosidase using p-nitrophenyl glycoside as substrate assessed as release of p-nitrophenol measured by spectrometric assay; parameters: species or system Canavalia ensiformis
[5] = Inhibition of Aspergillus niger amyloglucosidase using p-nitrophenyl glycoside as substrate assessed as release of p-nitrophenol measured by spectrometric assay
[6] = Inhibition of almond beta-glucosidase using p-nitrophenyl glycoside as substrate assessed as release of p-nitrophenol measured by spectrometric assay; parameters: species or system Prunus dulcis
Bos taurus [7] = organism: Bos taurus; experiment: Inhibition of bovine liver beta-glucosidase using p-nitrophenyl glycoside as substrate assessed as release of p-nitrophenol at 1000 uM measured by spectrometric assay relative to control; type: tissue-based
Aspergillus niger = experiment: Inhibition of Aspergillus niger amyloglucosidase using p-nitrophenyl glycoside as substrate assessed as release of p-nitrophenol at 1000 uM measured by spectrometric assay relative to control
[8] = target: T2, Alpha-mannosidase (Canavalia ensiformis) (UniProt C0HJB3); experiment: Inhibition of jack bean alpha-mannosidase using p-nitrophenyl glycoside as substrate assessed as release of p-nitrophenol at 1000 uM measured by spectrometric assay relative to control
T2 sequence (whole entry): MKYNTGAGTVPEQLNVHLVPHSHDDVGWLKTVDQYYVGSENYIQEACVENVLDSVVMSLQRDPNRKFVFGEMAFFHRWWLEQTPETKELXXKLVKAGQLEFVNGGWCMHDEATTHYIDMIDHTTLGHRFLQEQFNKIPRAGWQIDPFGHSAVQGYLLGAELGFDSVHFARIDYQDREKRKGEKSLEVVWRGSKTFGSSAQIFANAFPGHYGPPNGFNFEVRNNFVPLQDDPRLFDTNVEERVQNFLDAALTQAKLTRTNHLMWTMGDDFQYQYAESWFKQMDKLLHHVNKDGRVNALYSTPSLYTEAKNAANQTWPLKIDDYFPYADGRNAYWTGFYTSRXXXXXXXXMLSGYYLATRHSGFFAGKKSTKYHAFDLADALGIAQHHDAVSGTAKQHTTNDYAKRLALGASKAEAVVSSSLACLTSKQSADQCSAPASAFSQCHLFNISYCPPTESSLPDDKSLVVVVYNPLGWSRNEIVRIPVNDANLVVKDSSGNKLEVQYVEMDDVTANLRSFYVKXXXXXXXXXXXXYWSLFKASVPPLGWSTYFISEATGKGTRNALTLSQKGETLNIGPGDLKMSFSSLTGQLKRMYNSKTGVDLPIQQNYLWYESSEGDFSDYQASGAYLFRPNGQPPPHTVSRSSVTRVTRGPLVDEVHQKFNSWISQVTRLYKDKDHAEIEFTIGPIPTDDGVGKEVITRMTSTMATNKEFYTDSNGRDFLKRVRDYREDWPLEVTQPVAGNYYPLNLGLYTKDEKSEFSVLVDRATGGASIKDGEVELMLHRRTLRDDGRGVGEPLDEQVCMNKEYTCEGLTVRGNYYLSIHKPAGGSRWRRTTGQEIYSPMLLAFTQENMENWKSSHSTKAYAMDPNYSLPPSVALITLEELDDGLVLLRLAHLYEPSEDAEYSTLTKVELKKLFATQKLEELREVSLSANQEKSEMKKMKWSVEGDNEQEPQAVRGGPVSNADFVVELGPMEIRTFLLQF

[9] = target: T3, Sucrase-isomaltase, intestinal (Rattus norvegicus, UniProt P23739); experiment: Inhibition of rat intestinal isomaltase using p-nitrophenyl glycoside as substrate assessed as release of p-nitrophenol measured by spectrometric assay; conditions: read-out: IC50
T3 sequence (P23739 1-1013 limits assumed): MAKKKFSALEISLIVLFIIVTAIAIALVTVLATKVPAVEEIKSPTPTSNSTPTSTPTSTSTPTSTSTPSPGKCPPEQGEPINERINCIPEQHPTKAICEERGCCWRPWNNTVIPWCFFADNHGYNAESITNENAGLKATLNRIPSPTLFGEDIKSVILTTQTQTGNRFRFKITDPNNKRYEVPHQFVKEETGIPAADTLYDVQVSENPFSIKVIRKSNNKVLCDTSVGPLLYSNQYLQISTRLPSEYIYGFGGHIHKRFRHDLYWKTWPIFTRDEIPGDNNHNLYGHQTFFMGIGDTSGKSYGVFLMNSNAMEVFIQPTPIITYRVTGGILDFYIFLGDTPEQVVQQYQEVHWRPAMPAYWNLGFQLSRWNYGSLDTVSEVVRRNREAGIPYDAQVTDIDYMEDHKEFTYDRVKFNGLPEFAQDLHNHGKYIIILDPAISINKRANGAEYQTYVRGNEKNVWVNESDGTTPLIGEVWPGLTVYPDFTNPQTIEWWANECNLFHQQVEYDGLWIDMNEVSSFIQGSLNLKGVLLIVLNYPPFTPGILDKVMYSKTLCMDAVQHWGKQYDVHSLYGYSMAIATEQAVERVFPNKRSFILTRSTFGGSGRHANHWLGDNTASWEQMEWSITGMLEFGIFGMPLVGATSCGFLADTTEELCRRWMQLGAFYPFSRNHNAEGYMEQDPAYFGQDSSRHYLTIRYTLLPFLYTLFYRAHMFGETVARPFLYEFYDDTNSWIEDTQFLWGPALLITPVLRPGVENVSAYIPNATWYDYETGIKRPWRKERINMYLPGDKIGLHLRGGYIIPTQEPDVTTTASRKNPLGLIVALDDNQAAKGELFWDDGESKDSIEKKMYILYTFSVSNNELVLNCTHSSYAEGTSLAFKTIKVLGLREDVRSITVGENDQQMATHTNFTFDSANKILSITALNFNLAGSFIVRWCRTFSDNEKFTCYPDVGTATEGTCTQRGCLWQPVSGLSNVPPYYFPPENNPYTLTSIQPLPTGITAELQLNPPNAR
T3 sequence (P23739 1014-1841 limits assumed): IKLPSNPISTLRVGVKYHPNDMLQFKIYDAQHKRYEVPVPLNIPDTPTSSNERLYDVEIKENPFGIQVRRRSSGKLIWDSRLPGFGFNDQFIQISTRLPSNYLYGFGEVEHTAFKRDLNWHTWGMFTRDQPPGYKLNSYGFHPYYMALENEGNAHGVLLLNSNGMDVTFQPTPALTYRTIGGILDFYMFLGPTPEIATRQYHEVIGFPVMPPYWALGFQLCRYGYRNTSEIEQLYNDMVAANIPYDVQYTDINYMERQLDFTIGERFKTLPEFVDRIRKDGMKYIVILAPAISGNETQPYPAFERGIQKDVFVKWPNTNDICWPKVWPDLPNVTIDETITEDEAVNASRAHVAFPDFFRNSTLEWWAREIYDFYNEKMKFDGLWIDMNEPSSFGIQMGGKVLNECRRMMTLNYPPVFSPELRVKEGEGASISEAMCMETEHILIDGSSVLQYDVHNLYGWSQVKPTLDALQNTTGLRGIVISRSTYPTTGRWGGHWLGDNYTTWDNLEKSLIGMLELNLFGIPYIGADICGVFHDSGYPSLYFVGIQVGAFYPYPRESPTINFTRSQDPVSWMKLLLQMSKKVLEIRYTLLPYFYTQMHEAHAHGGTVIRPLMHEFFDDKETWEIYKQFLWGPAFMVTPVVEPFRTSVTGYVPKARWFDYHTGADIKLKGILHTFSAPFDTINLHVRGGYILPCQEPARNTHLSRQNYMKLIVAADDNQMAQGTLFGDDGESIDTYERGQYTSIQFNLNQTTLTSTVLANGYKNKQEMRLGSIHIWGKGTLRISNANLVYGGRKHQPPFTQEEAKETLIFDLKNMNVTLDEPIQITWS

Penicillium decumbens = experiment: Inhibition of Penicillium decumbens alpha-L-rhamnosidase using p-nitrophenyl glycoside as substrate assessed as release of p-nitrophenol at 1000 uM measured by spectrometric assay relative to control
Prunus dulcis = experiment: Inhibition of almond beta-glucosidase using p-nitrophenyl glycoside as substrate assessed as release of p-nitrophenol at 1000 uM measured by spectrometric assay relative to control
[10] = target: T3, Sucrase-isomaltase, intestinal; experiment: Inhibition of rat intestinal sucrase using p-nitrophenyl glycoside as substrate assessed as release of p-nitrophenol measured by spectrometric assay; conditions: read-out: IC50
[11] = target: Beta-glucuronidase (Escherichia coli (strain K12)) (UniProt P05804); experiment: Inhibition of Escherichia coli beta-glucuronidase using p-nitrophenyl glycoside as substrate assessed as release of p-nitrophenol at 1000 uM measured by spectrometric assay relative to control
Chain of Beta-glucuronidase (Escherichia coli (strain K12)) (P05804 whole entry, looked up): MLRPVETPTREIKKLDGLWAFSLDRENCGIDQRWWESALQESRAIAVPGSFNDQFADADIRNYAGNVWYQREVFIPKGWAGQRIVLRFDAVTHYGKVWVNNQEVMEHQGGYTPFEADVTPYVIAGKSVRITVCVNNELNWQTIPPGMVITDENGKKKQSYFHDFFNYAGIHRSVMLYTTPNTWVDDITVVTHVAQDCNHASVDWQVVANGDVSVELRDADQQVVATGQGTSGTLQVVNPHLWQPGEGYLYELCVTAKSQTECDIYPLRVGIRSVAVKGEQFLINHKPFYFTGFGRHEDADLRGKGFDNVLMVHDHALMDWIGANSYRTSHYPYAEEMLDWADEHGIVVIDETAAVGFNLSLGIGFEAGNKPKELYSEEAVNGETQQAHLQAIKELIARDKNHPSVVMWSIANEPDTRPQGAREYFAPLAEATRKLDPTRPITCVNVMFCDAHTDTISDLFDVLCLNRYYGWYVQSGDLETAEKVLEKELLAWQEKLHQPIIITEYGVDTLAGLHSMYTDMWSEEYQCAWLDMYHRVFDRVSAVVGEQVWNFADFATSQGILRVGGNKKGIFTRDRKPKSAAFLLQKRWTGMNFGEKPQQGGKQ

Beta-glucuronidase = Beta-glucuronidase (Escherichia coli (strain K12), UniProt P05804); experiment: Inhibition of Escherichia coli beta-glucuronidase using p-nitrophenyl glycoside as substrate assessed as release of p-nitrophenol measured by spectrometric assay
Chain of Beta-glucuronidase (P05804 whole entry): as the sequence (P05804 whole entry, looked up) above

[12] = Inhibition of bovine liver beta-glucosidase using p-nitrophenyl glycoside as substrate assessed as release of p-nitrophenol measured by spectrometric assay; parameters: species or system Bos taurus
[13] = Inhibition of snail beta-mannosidase using p-nitrophenyl glycoside as substrate assessed as release of p-nitrophenol measured by spectrometric assay; parameters: species or system Helix pomatia
Alpha-galactosidase = Alpha-galactosidase (Coffea arabica, UniProt Q42656); experiment: Inhibition of coffee beans alpha-galactosidase using p-nitrophenyl glycoside as substrate assessed as release of p-nitrophenol measured by spectrometric assay
Chain of Alpha-galactosidase (Q42656 whole entry): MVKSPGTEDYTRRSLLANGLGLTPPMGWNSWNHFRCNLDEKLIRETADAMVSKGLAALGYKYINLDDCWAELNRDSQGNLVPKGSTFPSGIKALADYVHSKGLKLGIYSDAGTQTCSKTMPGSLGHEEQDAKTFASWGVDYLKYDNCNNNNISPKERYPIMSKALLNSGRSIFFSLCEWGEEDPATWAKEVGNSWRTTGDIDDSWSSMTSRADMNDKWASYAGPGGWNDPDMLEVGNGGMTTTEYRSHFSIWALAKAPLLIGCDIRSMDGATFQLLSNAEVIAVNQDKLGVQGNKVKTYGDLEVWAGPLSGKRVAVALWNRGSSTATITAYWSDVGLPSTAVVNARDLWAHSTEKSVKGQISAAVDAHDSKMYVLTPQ

[14] = Inhibition of Penicillium decumbens alpha-L-rhamnosidase using p-nitrophenyl glycoside as substrate assessed as release of p-nitrophenol measured by spectrometric assay
[15] = Inhibition of rice alpha-glucosidase using p-nitrophenyl glycoside as substrate assessed as release of p-nitrophenol measured by spectrometric assay; parameters: species or system Oryza sativa
[16] = target: T4, Tissue alpha-L-fucosidase (Bos taurus, UniProt Q2KIM0); experiment: Inhibition of bovine kidney alpha-L-fucosidase using p-nitrophenyl glycoside as substrate assessed as release of p-nitrophenol measured by spectrometric assay
T4 sequence (Q2KIM0 whole entry): T1 sequence (whole entry)

Sus scrofa = organism: Sus scrofa; experiment: Inhibition of porcine kidney alpha-trehalase using p-nitrophenyl glycoside as substrate assessed as release of p-nitrophenol at 1000 uM measured by spectrometric assay relative to control
[17] = Inhibition of porcine kidney alpha-trehalase using p-nitrophenyl glycoside as substrate assessed as release of p-nitrophenol measured by spectrometric assay; parameters: species or system Sus scrofa
Bos taurus [18] = organism: Bos taurus; experiment: Inhibition of bovine liver beta-galactosidase using p-nitrophenyl glycoside as substrate assessed as release of p-nitrophenol at 1000 uM measured by spectrometric assay relative to control

| SMILES | inhibition [2] | IC50 [3] | inhibition (Helix pomatia) | IC50 [4] | IC50 [5] | IC50 [6] | inhibition (Aspergillus niger) | inhibition [8] | IC50 [9] | inhibition (Penicillium decumbens) | inhibition (Prunus dulcis) | IC50 [10] | IC50 (Beta-glucuronidase) | IC50 [13] | IC50 (Alpha-galactosidase; read-out: IC50) | IC50 [14] | IC50 ([15]; read-out: IC50) | IC50 [16] | inhibition (Sus scrofa) | IC50 [17] | also measured |
| --- | --- | --- | --- | --- | --- | --- | --- | --- | --- | --- | --- | --- | --- | --- | --- | --- | --- | --- | --- | --- | --- |
| CCCCCCCCCCC[C@]1(CO)NC[C@H](O)[C@@H](O)[C@@H]1O.Cl | 6.6% | 32 nM | 0% | Not Active | Not Active | Not Active | 0% | 2.1% | 1100 nM | 4.5% | 10% | 190 nM | Not Active | Not Active | 3600 nM | Not Active | 20 nM | Not Active | 20.3% | Not Active | IC50 ([1]; read-out: IC50): 70000 nM; inhibition (Bos taurus [7]): 3.7%; inhibition [11]: 25.2%; IC50 [12]: Not Active |
| CCCCCCC[C@]1(CO)NC[C@H](O)[C@@H](O)[C@@H]1O.Cl | 45.9% | 36 nM | 8.5% | Not Active | Not Active | Not Active | 12.2% | 17.3% | 550 nM | 0% | 36.3% | 230 nM | – | Not Active | 109000 nM | Not Active | 50 nM | Not Active | 12.9% | Not Active | IC50 [1]: Not Active; inhibition (Bos taurus [7]): 20.5%; inhibition (Bos taurus [18]): 29%; IC50 (Beta-glucuronidase; read-out: IC50): 28000 nM; IC50 [12]: Not Active |
| CCCCC[C@]1(CO)NC[C@H](O)[C@@H](O)[C@@H]1O.Cl | 12.4% | 23 nM | 4% | Not Active | Not Active | Not Active | 0.83% | 5.5% | 700 nM | 0% | 18.8% | 230 nM | Not Active | Not Active | 83000 nM | Not Active | 68 nM | Not Active | 10.6% | Not Active | IC50 [1]: Not Active; inhibition (Bos taurus [7]): 8%; inhibition (Bos taurus [18]): 16.1%; inhibition [11]: 10.8%; IC50 [12]: Not Active |
| OC[C@@H]1NC[C@H](O)[C@@H](O)[C@@H]1O | – | 8400 nM | – | Not Active | Not Active | Not Active | – | – | – | – | – | – | Not Active | Not Active | – | Not Active | – | Not Active | – | Not Active | IC50 [1]: Not Active; IC50 [12]: Not Active; IC50 (Alpha-galactosidase): Not Active; IC50 [15]: Not Active |
| CCCCCCCCC[C@]1(CO)NC[C@H](O)[C@@H](O)[C@@H]1O.Cl | 25.3% | 120 nM | 2.5% | Not Active | Not Active | Not Active | 14.1% | 10.7% | 1700 nM | 9.1% | 41.7% | 450 nM | – | Not Active | 15000 nM | Not Active | 28 nM | Not Active | – | – | IC50 ([1]; read-out: IC50): 68000 nM; IC50 (Beta-glucuronidase; read-out: IC50): 158000 nM; IC50 ([12]; read-out: IC50): 211000 nM; IC50 ([17]; read-out: IC50): 494000 nM |
| CCCCCCCCCC[C@]1(CO)NC[C@H](O)[C@@H](O)[C@@H]1O.Cl | 0.9% | 120 nM | 0% | Not Active | Not Active | Not Active | 9.2% | 4.3% | 13000 nM | 0% | 10% | 1700 nM | Not Active | Not Active | 18000 nM | Not Active | 33 nM | Not Active | 5.7% | Not Active | inhibition [11]: 24.4%; IC50 ([12]; read-out: IC50): 21000 nM |
| CCCC[C@]1(CO)NC[C@H](O)[C@@H](O)[C@@H]1O.Cl | 10.3% | 170 nM | 16.5% | Not Active | Not Active | Not Active | 17.1% | 6.6% | 2600 nM | 16.3% | 36.6% | 560 nM | – | Not Active | 58000 nM | Not Active | 140 nM | Not Active | 33.5% | Not Active | IC50 ([1]; read-out: IC50): 127000 nM; IC50 (Beta-glucuronidase; read-out: IC50): 679000 nM; IC50 ([12]; read-out: IC50): 315000 nM |
